Source: patent publication US10131652B2, “Pyrimidinyloxy benzene derivatives as herbicides” (E. I. DU PONT DE NEMOURS AND COMPANY, priority 2014, dated 2018)

Experiments:
Assay type in all cases: in vivo
[1] = test system: small-flower umbrella sedge (Cyperus difformis); test: Test C flooded paddy test plant response; conditions: Flood, 250 g ai/ha; scale of 0 to 100 where 0 is no effect and 100 is complete control; 13 to 15 days
How it was run: (§1)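 2-leaf plants; flood 3 cm, cpd into paddy water; greenhouse 13–15 d; visual score vs untreated, 0 = no effect, 100 = complete control; dash = no result.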

[2] = test system: ducksalad (Heteranthera limosa); test: Test C flooded paddy test plant response; conditions: Flood, 250 g ai/ha; scale of 0 to 100 where 0 is no effect and 100 is complete control; 13 to 15 days
How it was run: as §1

[3] = test system: rice (Oryza sativa); test: Test C flooded paddy test plant response; conditions: Flood, 250 g ai/ha; scale of 0 to 100 where 0 is no effect and 100 is complete control; 13 to 15 days
How it was run: as §1

[4] = test system: barnyardgrass (Echinochloa crus-galli); test: Test C flooded paddy test plant response; conditions: Flood, 250 g ai/ha; scale of 0 to 100 where 0 is no effect and 100 is complete control; 13 to 15 days
How it was run: as §1

[5] = test system: pigweed (Amaranthus retroflexus); test: Test B pre-/postemergence plant response
How it was run: (§2)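 Visual injury rating, 0 (no effect) to 100 (complete control), vs untreated controls after ~10 d greenhouse. Pre: directed soil spray after planting in loam/sand. Post: plants 2–10 cm, 1–2 leaf stage. Compound in non-phytotoxic solvent plus surfactant.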

[6] = test system: giant foxtail (Setaria faberii); test: Test B pre-/postemergence plant response
How it was run: as §2

[7] = test system: corn (Zea mays); test: Test B pre-/postemergence plant response
How it was run: as §2

[8] = test system: barnyardgrass (Echinochloa crus-galli); test: Test B pre-/postemergence plant response
How it was run: as §2

[9] = test system: wheat (Triticum aestivum); test: Test B pre-/postemergence plant response
How it was run: as §2

[10] = test system: blackgrass (Alopecurus myosuroides); test: Test D pre-/postemergence plant response
How it was run: (§3)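 Seeds sown in loam–sand blend got preemergence sprays of test chemicals in a non-phytotoxic solvent with surfactant; postemergence sprays went on plants at 1- to 4-leaf stage (2 to 18 cm) in peat/vermiculite medium. After 13 to 15 days in greenhouse, visual injury versus controls scored 0 (no effect) to 100 (complete control).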

[11] = test system: winter wheat (Triticum aestivum); test: Test D pre-/postemergence plant response
How it was run: as §3

[12] = test system: johnsongrass (Sorghum halepense); test: Test D pre-/postemergence plant response
How it was run: as §3

[13] = test system: galium (catchweed bedstraw, Galium aparine); test: Test D pre-/postemergence plant response
How it was run: as §3

[14] = test system: large (Lg) crabgrass (Digitaria sanguinalis); test: Test D pre-/postemergence plant response
How it was run: as §3

[15] = test system: velvetleaf (Abutilon theophrasti); test: Test D pre-/postemergence plant response
How it was run: as §3

[16] = test system: lambsquarters (Chenopodium album); test: Test D pre-/postemergence plant response
How it was run: as §3

[17] = 125 g ai/ha, postemergence, 0 to 100 scale, 0 no effect, 100 complete control
[18] = Postemergence, 500 g ai/ha, 0 to 100 scale (0 no effect, 100 complete control)
[19] = Preemergence, 125 g ai/ha, 0 to 100 scale (0 no effect, 100 complete control)
[20] = Preemergence, 500 g ai/ha, 0 to 100 scale where 0 is no effect and 100 is complete control
[21] = Postemergence, 31 g ai/ha, scale 0 to 100 (0 no effect, 100 complete control)
[22] = Postemergence, 62 g ai/ha, scale 0 to 100, 0 no effect, 100 complete control
[23] = Postemergence, 125 g ai/ha, scale 0 to 100, 0 no effect, 100 complete control
[24] = Preemergence, 16 g ai/ha, scale 0 to 100 (0 no effect, 100 complete control)
[25] = Preemergence, 31 g ai/ha, scale 0 to 100 (0 no effect, 100 complete control)
[26] = Preemergence, 62 g ai/ha, scale 0 to 100 (0 no effect, 100 complete control)

## FC(F)c1cc(-c2c(Cl)cccc2Oc2ncc(Cl)cn2)no1 [Compound 179]
[1]
  Sedge, Umbrella plant response rating: 80
[2]
  Ducksalad plant response rating: 80
[3]
  Rice plant response rating: 40
[4]
  Barnyardgrass plant response rating: 0
[5]; [17]
  Plant response rating, Pigweed: 100
[5]; [18]
  Plant response rating, Pigweed: 100
[5]; [19]
  Pigweed plant response rating: 100
[5]; [20]
  Plant response rating, Pigweed: 100
[6]; [17]
  Plant response rating, Foxtail, Giant: 40
[6]; [18]
  Plant response rating, Foxtail, Giant: 80
[6]; [19]
  Foxtail, Giant plant response rating: 80
[6]; [20]
  Plant response rating, Foxtail, Giant: 100
[7]; [17]
  Plant response rating, Corn: 10
[7]; [18]
  Plant response rating, Corn: 40
[8]; [17]
  Plant response rating, Barnyardgrass: 10
[8]; [18]
  Plant response rating, Barnyardgrass: 80
[8]; [19]
  Barnyardgrass plant response rating: 10
[8]; [20]
  Plant response rating, Barnyardgrass: 90
[9]; [17]
  Plant response rating, Wheat: 40
[9]; [18]
  Plant response rating, Wheat: 90
[10]; Postemergence, 16 g ai/ha
  Plant response rating (scale 0 to 100), Blackgrass: 5
[10]; [21]
  Blackgrass plant response rating: 5
[10]; [22]
  Plant response rating, Blackgrass: 15
[10]; [23]
  Plant response rating, Blackgrass: 20
[10]; Preemergence, 125 g ai/ha
  Plant response rating (scale 0 to 100), Blackgrass: 80
[10]; [24]
  Plant response rating, Blackgrass: 0
[10]; [25]
  Plant response rating, Blackgrass: 30
[10]; [26]
  Plant response rating, Blackgrass: 45
[11]; Postemergence, 16 g ai/ha
  Plant response rating (scale 0 to 100), Wheat: 5
[11]; [21]
  Wheat plant response rating: 10
[11]; [22]
  Wheat plant response rating: 30
[11]; [23]
  Plant response rating, Wheat: 35
[11]; Preemergence, 125 g ai/ha
  Plant response rating (scale 0 to 100), Wheat: 35
[11]; [24]
  Plant response rating, Wheat: 0
[11]; [25]
  Plant response rating, Wheat: 0
[11]; [26]
  Plant response rating, Wheat: 0
[12]; Postemergence, 16 g ai/ha
  Plant response rating (scale 0 to 100), Johnsongrass: 0
[12]; [21]
  Johnsongrass plant response rating: 5
[12]; [22]
  Plant response rating, Johnsongrass: 5
[12]; [23]
  Plant response rating, Johnsongrass: 5
[12]; Preemergence, 125 g ai/ha
  Plant response rating (scale 0 to 100), Johnsongrass: 65
[12]; [24]
  Plant response rating, Johnsongrass: 0
[12]; [25]
  Plant response rating, Johnsongrass: 0
[12]; [26]
  Plant response rating, Johnsongrass: 20
[13]; Postemergence, 16 g ai/ha
  Plant response rating (scale 0 to 100), Galium: 70
[13]; [21]
  Galium plant response rating: 80
[13]; [22]
  Plant response rating, Galium: 70
[13]; [23]
  Plant response rating, Galium: 75
[13]; Preemergence, 125 g ai/ha
  Plant response rating (scale 0 to 100), Galium: 98
[13]; [24]
  Plant response rating, Galium: 90
[13]; [25]
  Plant response rating, Galium: 90
[13]; [26]
  Plant response rating, Galium: 90
[14]; Postemergence, 16 g ai/ha
  Plant response rating (scale 0 to 100), Crabgrass, Large: 5
[14]; [21]
  Crabgrass, Large plant response rating: 5
[14]; [22]
  Plant response rating, Crabgrass, Large: 5
[14]; [23]
  Plant response rating, Crabgrass, Large: 5
[14]; Preemergence, 125 g ai/ha
  Plant response rating (scale 0 to 100), Crabgrass, Large: 100
[14]; [24]
  Plant response rating, Crabgrass, Large: 10
[14]; [25]
  Plant response rating, Crabgrass, Large: 65
[14]; [26]
  Plant response rating, Crabgrass, Large: 75
[15]; Postemergence, 16 g ai/ha
  Plant response rating (scale 0 to 100), Velvetleaf: 15
[15]; [21]
  Velvetleaf plant response rating: 20
[15]; [22]
  Velvetleaf plant response rating: 30
[15]; [23]
  Plant response rating, Velvetleaf: 70
[15]; Preemergence, 125 g ai/ha
  Plant response rating (scale 0 to 100), Velvetleaf: 100
[15]; [24]
  Plant response rating, Velvetleaf: 15
[15]; [25]
  Plant response rating, Velvetleaf: 65
[15]; [26]
  Plant response rating, Velvetleaf: 85
[16]; Postemergence, 16 g ai/ha
  Plant response rating (scale 0 to 100), Lambsquarters: 70
[16]; [21]
  Lambsquarters plant response rating: 75
[16]; [22]
  Lambsquarters plant response rating: 75
[16]; [23]
  Plant response rating, Lambsquarters: 100
[16]; Preemergence, 125 g ai/ha
  Plant response rating (scale 0 to 100), Lambsquarters: 100
[16]; [24]
  Plant response rating, Lambsquarters: 75
[16]; [25]
  Plant response rating, Lambsquarters: 100
[16]; [26]
  Plant response rating, Lambsquarters: 100
